This passage reports EC50 and IC50 results from patent US11566007B2, “Ras inhibitors” (Revolution Medicines, Inc., priority 2019, dated 2023).

For assay [1], the system named is NCI-H358 cells (K-Ras G12C). The assay is described as follows: Potency assay: pERK in NCI-H358 cells. The format is cell-based, human. As to conditions: Homo sapiens, NCI-H358; H358 KRAS G12C; read-out: pERK EC50. Summed up: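 pERK decrease read by AlphaLISA SureFire p-ERK1/2 or In-Cell Western after 4 h compound exposure at 37 °C, 5% CO2.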
Assay [2] relates to NCI-H358 (K-Ras G12C). The assay is described as follows: CellTiter-Glo cell viability assay, NCI-H358. It is filed as cell-based, human. As to conditions: Homo sapiens, NCI-H358, 120 h, NCI-H358, 5-day treatment; class symbols; read-out: Additional H358 Cell Viability assay data (K-Ras G12C, IC50). The gist of the method:
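Compounds dispensed directly onto seeded K-Ras mutant cells; plates read on day 5 after ~30 min equilibration to room temperature, by CellTiter-Glo luminescence. Signal normalized as (sample/mean DMSO)×100, then fitted to a four-parameter logistic curve.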

Assay [3] deals with K-Ras G12C (Homo sapiens (Human), UniProt P01116+P62937, G12C). The experiment in a line: Ras-Raf (BRAF RBD) disruption / FRET / MOA assay, KRAS G12C. The format is biochemical. Particulars: KRAS G12C; Ras-Raf disruption/FRET/MOA assay; read-out: IC50* KRAS G12C FRET data. The gist of the method: (§1)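 Compounds, top final concentration 30 μM in 10-point 3-fold series, incubated 3 hours at 25° C with nucleotide-loaded Ras, cyclophilin A and BRAF RBD.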
K-Ras G12C, sequence (P01116-2 other isoform, or with tags, fused parts or gaps G12C): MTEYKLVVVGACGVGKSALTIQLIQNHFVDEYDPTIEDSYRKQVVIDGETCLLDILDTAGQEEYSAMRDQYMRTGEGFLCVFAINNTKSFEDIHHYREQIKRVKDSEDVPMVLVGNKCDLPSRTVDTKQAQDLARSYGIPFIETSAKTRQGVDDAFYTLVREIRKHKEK
K-Ras G12C, sequence (P62937 whole entry): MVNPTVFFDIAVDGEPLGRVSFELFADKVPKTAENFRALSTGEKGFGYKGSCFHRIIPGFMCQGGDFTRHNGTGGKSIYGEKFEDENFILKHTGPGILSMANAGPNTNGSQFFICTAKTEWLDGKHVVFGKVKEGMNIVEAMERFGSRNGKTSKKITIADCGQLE

The target of assay [4] is K-Ras G13C (Homo sapiens (Human), UniProt P01116+P62937, G13C). The experiment in a line: Ras-Raf (BRAF RBD) disruption / FRET / MOA assay, KRAS G13C. The format is biochemical. Particulars: KRAS G13C; Ras-Raf disruption/FRET/MOA assay; read-out: IC50* KRAS G13C FRET data. Summed up:
as §1

The target of assay [5] is KRAS G12S (Homo sapiens (Human), UniProt P01116+P62937, G12S). The assay is described as follows: Ras-Raf (BRAF RBD) disruption / FRET / MOA assay, KRAS G12S. The format is biochemical. Particulars: Ras-Raf disruption/FRET/MOA assay; class symbols; read-out: KRAS G12S FRET data IC50. The gist of the method:
as §1

Assay [6] concerns the target KRAS G12D (Homo sapiens (Human), UniProt P01116+P62937, G12D). The assay is described as follows: Ras-Raf (BRAF RBD) disruption / FRET / MOA assay, KRAS G12D. The format is biochemical. As to conditions: Ras-Raf disruption/FRET/MOA assay; class symbols; read-out: KRAS G12D FRET data IC50. The gist of the method: as §1
For assay [7], the target named is KRAS G12V (Homo sapiens (Human), UniProt P01116+P62937, G12V). The experiment in a line: Ras-Raf (BRAF RBD) disruption / FRET / MOA assay, KRAS G12V. It is filed as biochemical. Particulars: read-out: IC50* KRAS G12V FRET data. The gist of the method:
as §1

Assay [8] deals with KRAS WT (Homo sapiens (Human), UniProt P01116+P62937). The experiment in a line: Ras-Raf (BRAF RBD) disruption / FRET / MOA assay, KRAS WT. The format is biochemical. As to conditions: read-out: IC50* KRAS WT FRET data. Summed up: as §1
KRAS WT, sequence (P01116-2 other isoform, or with tags, fused parts or gaps): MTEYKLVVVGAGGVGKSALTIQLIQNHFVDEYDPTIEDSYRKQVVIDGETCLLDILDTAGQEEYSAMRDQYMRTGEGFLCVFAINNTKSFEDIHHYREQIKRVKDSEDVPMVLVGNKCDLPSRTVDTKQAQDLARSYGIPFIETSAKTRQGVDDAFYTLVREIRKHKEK
KRAS WT, sequence (P62937 whole entry): as the sequence (P62937 whole entry) above
Assay [9] deals with KRAS G13D (Homo sapiens (Human), UniProt P01116+P62937, G13D). The assay is described as follows: Ras-Raf (BRAF RBD) disruption / FRET / MOA assay, KRAS G13D. The format is biochemical. Particulars: read-out: IC50* KRAS G13D FRET data. The gist of the method:
as §1

Assay [10] has as its target NRAS G12C (Homo sapiens (Human), UniProt P01111+P62937, G12C). The assay is described as follows: Ras-Raf (BRAF RBD) disruption / FRET / MOA assay, NRAS G12C. It is filed as biochemical. As to conditions: read-out: IC50* NRAS G12C FRET data. Summed up: as §1

KRAS G12D, sequence (P01116-2 other isoform, or with tags, fused parts or gaps G12D): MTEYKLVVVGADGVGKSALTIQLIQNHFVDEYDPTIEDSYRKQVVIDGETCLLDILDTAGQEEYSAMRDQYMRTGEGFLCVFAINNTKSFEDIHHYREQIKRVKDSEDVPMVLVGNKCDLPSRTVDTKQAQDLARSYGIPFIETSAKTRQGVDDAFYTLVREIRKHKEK
KRAS G12D, sequence (P62937 whole entry): as the sequence (P62937 whole entry) above
KRAS G12S, sequence (P01116-2 other isoform, or with tags, fused parts or gaps G12S): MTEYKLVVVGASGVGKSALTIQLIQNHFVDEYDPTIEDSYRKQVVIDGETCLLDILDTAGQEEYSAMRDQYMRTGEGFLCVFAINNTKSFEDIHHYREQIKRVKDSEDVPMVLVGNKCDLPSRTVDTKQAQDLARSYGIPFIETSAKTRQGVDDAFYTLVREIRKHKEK
KRAS G12S, sequence (P62937 whole entry): as the sequence (P62937 whole entry) above
KRAS G12V, sequence (P01116-2 other isoform, or with tags, fused parts or gaps G12V): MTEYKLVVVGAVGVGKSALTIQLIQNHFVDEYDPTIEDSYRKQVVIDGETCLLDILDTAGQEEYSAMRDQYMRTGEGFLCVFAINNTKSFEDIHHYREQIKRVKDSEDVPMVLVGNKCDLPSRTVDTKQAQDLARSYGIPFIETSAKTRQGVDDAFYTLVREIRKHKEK
KRAS G12V, sequence (P62937 whole entry): as the sequence (P62937 whole entry) above
KRAS G13D, sequence (P01116-2 other isoform, or with tags, fused parts or gaps G13D): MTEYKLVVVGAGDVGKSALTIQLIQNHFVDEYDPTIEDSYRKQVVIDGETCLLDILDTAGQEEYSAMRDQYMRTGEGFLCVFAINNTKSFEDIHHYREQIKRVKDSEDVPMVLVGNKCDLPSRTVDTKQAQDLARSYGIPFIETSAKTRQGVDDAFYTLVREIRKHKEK
KRAS G13D, sequence (P62937 whole entry): as the sequence (P62937 whole entry) above
K-Ras G13C, sequence (P01116-2 other isoform, or with tags, fused parts or gaps G13C): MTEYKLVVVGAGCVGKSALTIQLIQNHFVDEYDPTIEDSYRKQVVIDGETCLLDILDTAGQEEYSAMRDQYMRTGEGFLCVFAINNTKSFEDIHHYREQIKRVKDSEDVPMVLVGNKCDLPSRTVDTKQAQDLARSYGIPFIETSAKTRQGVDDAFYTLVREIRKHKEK
K-Ras G13C, sequence (P62937 whole entry): as the sequence (P62937 whole entry) above
NRAS G12C, sequence (P01111 whole entry G12C): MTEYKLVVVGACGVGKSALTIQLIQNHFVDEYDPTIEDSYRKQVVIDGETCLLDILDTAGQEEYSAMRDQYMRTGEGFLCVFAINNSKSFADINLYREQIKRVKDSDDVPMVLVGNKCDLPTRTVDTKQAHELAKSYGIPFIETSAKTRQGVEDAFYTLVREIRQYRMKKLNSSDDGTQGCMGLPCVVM
NRAS G12C, sequence (P62937 whole entry): as the sequence (P62937 whole entry) above

A word on the EC50: it is the concentration giving half of the maximal effect. Broadly, the IC50 is the concentration that gives 50% inhibition. For the compound `CCn1c(-c2cccnc2[C@H](C)OC)c2c3cc(ccc31)-c1cc(O)cc(c1)C[C@H](NC(=O)[C@H](C(C)C)N1CCC3(CN(C(=O)/C=C/CN(C)C)C3)C1=O)C(=O)N1CCC[C@H](N1)C(=O)OCC(C)(C)C2` (atropisomer, axis not shown) [Example A270], the EC50 in [1] was under 5000 nM. For the same compound, the IC50 is 10 to 100 nM in assay [2]; under 10 nM in assay [3]; under 10 nM in assay [4]; 10 to 100 nM in assay [5]; 100 to 1000 nM in [6]; 100 to 1000 nM in [7]. Further, the IC50 is 10 to 100 nM in assay [8], 10 to 100 nM in assay [9] and under 10 nM in [10].

For `C/C=C/S(=O)(=O)N1CC[C@H](C(=O)N(C)[C@H](C(=O)N[C@H]2Cc3cc(O)cc(c3)-c3ccc4c(c3)c(c(-c3cccnc3[C@H](C)OC)n4CC)CC(C)(C)COC(=O)[C@@H]3CCCN(N3)C2=O)C(C)C)C1` (atropisomer, axis not shown) [Example A280], the EC50 in [1] is under 5000 nM. For the same compound, the IC50 fell in the range of 10 to 100 nM in [2]; 10 to 100 nM in assay [3]; 10 to 100 nM in [4]; 100 to 1000 nM in [5]; 1000 to 10000 nM in assay [6]; 100 to 1000 nM in [7]. In addition, the IC50 in [8] fell in the range of 10 to 100 nM; in [9] it was 100 to 1000 nM; in [10], 100 to 1000 nM.

Regarding `CC#CC(=O)N1CC[C@H](C(=O)N(C)[C@H](C(=O)N[C@H]2Cc3nc(ns3)-c3ccc4c(c3)c(c(-c3cccnc3[C@H](C)OC)n4CC)CC(C)(C)COC(=O)[C@@H]3CCCN(N3)C2=O)C(C)C)C1` (atropisomer, axis not shown) [Example A289], in assay [1], the EC50 is under 5000 nM. For the same compound, the IC50 was 100 to 1000 nM in [2]; 1000 to 10000 nM in assay [3]; 1000 to 10000 nM in assay [4]; over 10000 nM in assay [5]; over 10000 nM in assay [6]; 1000 to 10000 nM in [7]. For the same compound, the IC50 is over 10000 nM in [8], over 10000 nM in [9] and 1000 to 10000 nM in [10].

Take `CCn1c(-c2cccnc2[C@H](C)OC)c2c3cc(ccc31)-c1csc(n1)C[C@H](NC(=O)[C@H](C(C)C)N(C)C(=O)[C@H]1CCN(C(=O)C#CC(C)(C)N(C)C)C1)C(=O)N1CCC[C@H](N1)C(=O)OCC(C)(C)C2` (atropisomer, axis not shown) [Example A291]: the EC50 in [1] was under 5000 nM. Besides, the IC50 was under 10 nM in assay [2]; under 10 nM in assay [3]; 1000 to 10000 nM in assay [4]; 1000 to 10000 nM in [5]; over 10000 nM in assay [6]; 1000 to 10000 nM in assay [7]. Further, the IC50 was 1000 to 10000 nM in assay [8], over 10000 nM in assay [9] and 10 to 100 nM in assay [10].

Consider `CCn1c(-c2cccnc2[C@H](C)OC)c2c3cc(ccc31)-c1cc(O)cc(c1)C[C@H](NC(=O)[C@H](C(C)C)N(C)C(=O)[C@H]1CCN(C(=O)C#CC(C)(C)N(C)C)C1)C(=O)N1CCC[C@H](N1)C(=O)OCC(C)(C)C2` (atropisomer, axis not shown) [Example A292], for which the EC50 in assay [1] was under 5000 nM. The IC50 is under 10 nM in assay [2]; under 10 nM in assay [3]; under 10 nM in assay [4]; 10 to 100 nM in assay [5]; 100 to 1000 nM in assay [6]; 10 to 100 nM in [7]. Further, the IC50 in [8] was 100 to 1000 nM; in assay [9] it was 100 to 1000 nM; in [10] it was under 10 nM.
